Data reported in ChEMBL document CHEMBL1201862, “PubChem BioAssay data set” (2004).
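Cultured in 96-well plates, cells were exposed to test compound for 48 hours across five concentrations. GI50 is the concentration that inhibits growth by half.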 The source made the active and inactive calls. Rule as the data show it: active = GI50 up to about 1.1 µM and inactive = higher.

Legend:
Assay in all cases: NCI-60 cell line screen, 48 h
[1] = tested on: XF498
[2] = tested on: SNB-78
[3] = tested on: LXFL 529
[4] = tested on: RXF 631
[5] = tested on: KM-20L2
[6] = tested on: DLD-1
[7] = tested on: DMS-273
[8] = tested on: M19-MEL
[9] = tested on: HOP-18

| SMILES | GI50 [1] | GI50 [2] | GI50 [3] | GI50 [4] | GI50 [5] | GI50 [6] | GI50 [7] | GI50 [8] | GI50 [9] |
| --- | --- | --- | --- | --- | --- | --- | --- | --- | --- |
| C/C(=N\NC(=O)CC(=O)N(C(=O)c1ccc(Cl)cc1)c1ccc(C)cc1)c1ccccc1O | > 100 µM (inactive) | 57.3 µM (inactive) | > 100 µM (inactive) | > 100 µM (inactive) | 18 µM (inactive) | 74.6 µM (inactive) | 31.7 µM (inactive) | > 100 µM (inactive) |  |
| CC[N+](C)(C)c1ccc(C(=C2C=CC(=[N+](C)C)C=C2)c2ccc(N(C)C)cc2)cc1 | 15.8 µM (inactive) |  | 6.04 µM (inactive) | 13.4 µM (inactive) |  | 6.07 µM (inactive) | 6.4 µM (inactive) | 7.91 µM (inactive) | 6.89 µM (inactive) |
| CC(=O)SCCC1c2[nH]c3ccccc3c2CCN1O (centres undefined) |  |  | 56.4 µM (inactive) |  | > 100 µM (inactive) | > 100 µM (inactive) | 86.1 µM (inactive) | > 100 µM (inactive) | > 100 µM (inactive) |
| O=[PH](O)c1cccnc1 | > 100 µM (inactive) | > 100 µM (inactive) | > 100 µM (inactive) | > 100 µM (inactive) | > 100 µM (inactive) | > 100 µM (inactive) | > 100 µM (inactive) | > 100 µM (inactive) |  |
| Cn1c(=O)c(C(=O)NC(=O)OCc2ccccc2)cn(CCSCCOC(=O)NCCCCCCNC(=O)OCCSCCn2cc(C(=O)NC(=O)OCc3ccccc3)c(=O)n(C)c2=O)c1=O | 16.9 µM (inactive) | > 100 µM (inactive) | > 100 µM (inactive) | > 100 µM (inactive) | > 100 µM (inactive) | > 100 µM (inactive) | > 100 µM (inactive) | > 100 µM (inactive) |  |
| CCOCC(=O)N[C@H]1CCc2cc(OC)c(OC)c(OC)c2-c2ccc(SC)c(=O)cc21 | < 0.0224 µM (active) | < 0.01 µM (active) | < 0.01 µM (active) | < 0.01 µM (active) | < 0.01 µM (active) | < 0.01 µM (active) | < 0.01 µM (active) | < 0.01 µM (active) | > 75.3 µM (inactive) |
| COC(=O)C12OCC34C(CC5C(C)C6=CC(=O)OC6=CC5(C)C3C(O)C1O)OC(=O)C(OC(C)=O)C24 (centres undefined) | 12.2 µM (inactive) | 11.6 µM (inactive) | 14.6 µM (inactive) | 16.8 µM (inactive) | 17 µM (inactive) | 14.6 µM (inactive) | 14.4 µM (inactive) | 15.4 µM (inactive) | 14.2 µM (inactive) |
| O=S1(=O)CCCS(=O)(=O)C(c2ccccc2)=C1c1ccccc1 |  | > 100 µM (inactive) | 29.6 µM (inactive) | 84.7 µM (inactive) | 37.2 µM (inactive) | 39.7 µM (inactive) |  | 70.5 µM (inactive) | 44.6 µM (inactive) |
| CC(=O)/C(=C\c1ccccc1O)C(=O)Nc1ccccc1C | 13.9 µM (inactive) | 23.4 µM (inactive) | 22.3 µM (inactive) |  |  | 20.1 µM (inactive) |  | 27.7 µM (inactive) | 40.2 µM (inactive) |
| COc1cc(C(C)O)c[n+](CCc2c[nH]c3ccccc23)c1 (centres undefined) | > 100 µM (inactive) |  | > 100 µM (inactive) | > 100 µM (inactive) | 56.9 µM (inactive) | > 100 µM (inactive) | > 100 µM (inactive) | > 100 µM (inactive) |  |
| N#Cc1ccc(C2SCc3nc4ccccc4n32)cc1 (centres undefined) | > 100 µM (inactive) | > 100 µM (inactive) | 45.4 µM (inactive) |  | 52.7 µM (inactive) | > 100 µM (inactive) | > 100 µM (inactive) | > 100 µM (inactive) | 48.5 µM (inactive) |
| COc1ccc(/C=C2\C(=O)N(C(=O)c3ccc(NC(C)=O)cc3)N=C2C)cc1 | > 100 µM (inactive) | > 100 µM (inactive) |  |  |  | > 10 µM (inactive) | > 100 µM (inactive) | > 100 µM (inactive) | > 100 µM (inactive) |
| CN1CC[C@]2(C)c3c(O)cccc3CC3CCCC1C32C (some centres undefined) | 59.6 µM (inactive) | > 100 µM (inactive) | > 100 µM (inactive) | > 100 µM (inactive) | > 100 µM (inactive) | > 100 µM (inactive) |  | > 100 µM (inactive) | 54.1 µM (inactive) |
| CC1=NN(C(=O)Cc2ccccc2)C(=O)/C1=C\c1cccc(O)c1 | > 100 µM (inactive) | > 100 µM (inactive) |  |  |  | > 100 µM (inactive) | > 100 µM (inactive) | > 100 µM (inactive) | > 100 µM (inactive) |
| CC1(Br)C(=O)NC(=O)N([C@H]2C[C@H](O)[C@@H](CO)O2)C1N=[N+]=[N-] (some centres undefined) | > 100 µM (inactive) | > 100 µM (inactive) | > 100 µM (inactive) | > 100 µM (inactive) | > 100 µM (inactive) | > 100 µM (inactive) | > 100 µM (inactive) | > 100 µM (inactive) | > 100 µM (inactive) |
| Cc1c(C(=O)O)n(C)c(=O)n(C)c1=O | > 100 µM (inactive) |  | > 100 µM (inactive) |  | > 100 µM (inactive) | > 100 µM (inactive) | > 100 µM (inactive) | > 100 µM (inactive) | > 100 µM (inactive) |
| O=C(NO)c1ccc([N+](=O)[O-])cc1 | 73.1 µM (inactive) |  | 25.1 µM (inactive) |  | 62.2 µM (inactive) | 51.3 µM (inactive) | 43.8 µM (inactive) | 52.2 µM (inactive) |  |
| Cc1ccc(N2C(=O)C(Cl)=C(Cl)C2=O)cc1 |  | 24.2 µM (inactive) | 19.1 µM (inactive) | 21.1 µM (inactive) | 24.2 µM (inactive) | 20.9 µM (inactive) | 62.5 µM (inactive) | 21 µM (inactive) | 19 µM (inactive) |
| COc1cc(/C=C(\NC(=O)c2ccccc2)c2nc3ccc4c(c3[nH]2)C(=O)c2ccccc2C4=O)cc(OC)c1OC | > 100 µM (inactive) | 76.7 µM (inactive) | 49 µM (inactive) | 58.7 µM (inactive) | > 100 µM (inactive) | 7.11 µM (inactive) | 40.7 µM (inactive) | > 100 µM (inactive) |  |
| COc1ccccc1-c1cc(O)c2cc3c(cc2n1)OCO3 | 21.9 µM (inactive) |  | 48.9 µM (inactive) |  |  | 40.2 µM (inactive) | 19.6 µM (inactive) | 32.4 µM (inactive) |  |
| CN(C)Cc1[nH]c2ccccc2c1C(=O)c1ccccc1 | 97.9 µM (inactive) |  | > 100 µM (inactive) |  | 64.9 µM (inactive) | > 100 µM (inactive) | > 100 µM (inactive) |  |  |
| NC1=NN(c2ccccc2)C(=O)C1C(=O)C(=O)NC1C2CC3CC(C2)CC1C3 (centres undefined) |  | > 100 µM (inactive) | 66.1 µM (inactive) | > 100 µM (inactive) | > 100 µM (inactive) | > 100 µM (inactive) | > 100 µM (inactive) | > 100 µM (inactive) | > 100 µM (inactive) |
